# Reference: patent US12318369B2, “Analgesic and antipruritic pharmacertical composition and application thereof” (KEVICI (SHANGHAI) PHARMACEUTICAL CO., LTD., priority 2020, dated 2025)
# Entries after “also recorded” stand apart in the source; their conditions may differ.
# What was measured:
# [1] = tested on: SNI-induced neuropathic pain C57/BJ6 mice; test: SNI-induced neuropathic pain mouse model, mechanical pain threshold (PWT) by Von Frey; type: in vivo
# Procedure: C57/BJ6 mice aged 5-6 weeks were purchased from Shanghai SLAC Laboratory Animal Co., Ltd and fed for 6 months. After that, the mice were placed in a transparent plexiglass chamber on an iron support. 30 minutes later, the baseline mechanical threshold (paw withdrawal threshold, PWT) of the mice was detected by Von Frey (DanMicGlobal, CA, USA). The average threshold of the mice was 1.54+0.07 g (see FIG. 1). The spared nerve injury (SNI)-induced neuropathic pain C57/BJ6 mouse model was established according to Pertin, M et al (Pertin, M., Gosselin, RD., Decosterd, I. (2012). The Spared Nerve Injury Model of Neuropathic Pain. In: Luo, Z. (eds) Pain Research. Methods in Molecular Biology, vol 851. Humana Press). The SNI-induced neuropathic pain mice were measured for the mechanical pain threshold using Von Frey respectively at 2 weeks, 4 weeks and 6 weeks post operation.
# The mechanical pain threshold of mice was tested 1 hour after injection. […] Among them, the mice with poor response (ΔPWT≤ 0.2 g) accounted for 10% (2/20) of all tested mice.
# 20 μg/kg GNE-0439 and 90 μg/kg PF-04885614 were intraperitoneally injected into SNI mice at 6 weeks post operation. One hour later, the mechanical threshold of mice was measured using Von Frey.
# [2] = tested on: subjects with painful diabetic peripheral neuropathy; details: randomised, placebo-controlled, double-blind clinical study; cited from earlier work
# [3] = tested on: neuropathic pain patients; details: clinical use; cited from earlier work
# [4] = Side effects observed in SNI mice after intraperitoneal injection
smiles,measurement,setting,value
Nc1n[nH]cc1-c1cc(Cl)ccc1Oc1cc(F)c(S(=O)(=O)Nc2cscn2)cc1Cl [PF-05089771],mice with poor response (ΔPWT≤0.2 g),"[1]; 2 mg/kg i.p., 2 weeks post operation (2/20)",10%
same,mice with poor response (ΔPWT≤0.2 g),"[1]; 2 mg/kg i.p., 4 weeks post operation (10/24)",41.7%
same,mice with poor response (ΔPWT≤0.2 g),"[1]; 2 mg/kg i.p., 6 weeks post operation (16/28)",57.1%
same,increase of mechanical pain threshold (ΔPWT),"[1]; 2 mg/kg i.p., SNI mice 2 weeks post operation, 1 hour after injection",0.77 ± 0.10 g
same,increase of mechanical pain threshold (ΔPWT),"[1]; 2 mg/kg i.p., SNI mice 4 weeks post operation, 1 hour after injection",0.39 ± 0.07 g
same,increase of mechanical pain threshold (ΔPWT),"[1]; 2 mg/kg i.p., SNI mice 6 weeks post operation, 1 hour after injection",0.17 ± 0.03 g
same,fraction of total mice that poorly responded (ΔPWT≤0.2 g),"[1]; 2 mg/kg, 6 weeks post SNI operation (8/12, Table 1)",2/3
same,efficacy in treatment of diabetic neuropathic pain,[2],poor efficacy
CC(C)(N)c1ncc(-c2ccc(OC(F)(F)F)cc2)[nH]1 [PF-04885614],mice with poor response (ΔPWT≤0.2 g),"[1]; 45 μg/kg i.p., 2 weeks post operation (2/18)",11.1%
same,threshold increase compared with the control group,"[1]; 45 μg/kg i.p., 4 weeks post operation",no statistically significant difference
same,mice with poor response (ΔPWT≤0.2 g),"[1]; 45 μg/kg i.p., 4 weeks post operation (10/19)",52.6%
same,mice with poor response (ΔPWT≤0.2 g),"[1]; 45 μg/kg i.p., 6 weeks post operation (13/17)",76.5%
same,increase of mechanical pain threshold (ΔPWT),"[1]; 45 μg/kg i.p., SNI mice 2 weeks post operation",0.86 ± 0.14 g
same,increase of mechanical pain threshold (ΔPWT),"[1]; 45 μg/kg i.p., SNI mice 4 weeks post operation",0.21 ± 0.04 g
same,increase of mechanical pain threshold (ΔPWT),"[1]; 45 μg/kg i.p., SNI mice 6 weeks post operation",0.10 ± 0.04 g
same,fraction of PF-05089771 poor responders that well responded,"[1]; 90 μg/kg PF-04885614, 6 weeks post SNI operation",half
CCCC1CCC(c2ccc(C(=O)N[C@H](C(=O)O)C(C)C)cc2)CC1 (stereo partly shown) [GNE-0439],ΔPWT,"[1]; single administration, 20 μg/kg i.p., SNI mice 6 weeks post operation, one hour after injection",0.77 ± 0.14 g
NCC1(CC(=O)O)CCCCC1 [Gabapentin],effect on mechanical pain of SNI mice,"[1]; 100 mg/kg i.p., 6 weeks post operation",relieve effect
same,accompanying side effects in patients,[3],"sedation effects (such as drowsiness, fatigue and dizziness)"
same,side effects,[4]; 100 mg/kg Gabapentin,sedative side effects
COc1ccc(Cl)c(-c2ccc(NC(=O)c3ccnn3C)nc2N)c1 [PF-04531083],side effects,[4]; 10 mg/kg PF-04531083 (effective dose),obvious side effects such as sedation and weight loss; also recorded: significant side effects such as sedation and weight loss
CC(C)C[C@H](CN)CC(=O)O [Pregabalin],accompanying side effects in patients,[3],"sedation effects (such as drowsiness, fatigue and dizziness)"
